The record followed here is paper PMC7215574, “Development of Thiazolidinones as Fungal Carbonic Anhydrase Inhibitors” (International Journal of Molecular Sciences, 2020).

Converted amounts (≈) assume the structure as drawn. Read-outs that look alike come from different tables or passages of the source.

Assay [1] deals with T1, Candida sake C. sakè 3 strains.
T1 construct: 3 clinical isolates
As to the kind of experiment: microbe, parasite or virus in culture. More on the design: species or system clinical Candida isolates; broth microdilution antifungal MIC, visual growth inhibition, CLSI. The settings on record: Fermentozyma sake, 24 h; read-out: Tested Fungi (MIC Values μg/mL) / C. sakè 3 strains. Here is the method:
(§1) The in vitro antifungal activities were determined by the broth microdilution method with sabouraud dextrose broth (BBL Microbiology Systems, Cockeysville, MD, USA), as recommended by the by the CLSI [43]. Ninety-six-well polystyrene microtitre plates containing serial dilutions of each compound were inoculated with each microorganism to yield the appropriate density (1–5 × 10^3 cells/mL) in a 100-μL final volume. Each plate included (i) fungi without the addition of the compound, (ii) just the medium, and (iii) just the compound. Topical and systemic antifungal reference drugs, clotrimazole and fluconazole, were inserted in the experiment. The plates were incubated for 24 h at 35 °C. […] Three independent experiments were performed in triplicate. The antimicrobial activity of these thiazolidinones was evaluated versus 24 clinical Gram-positive (S. aureus and S. epidermidis) and Gram-negative (E. coli and Enterobacter spp.) microorganisms. The antifungal activity of these derivatives was then tested versus 16 clinical fungal isolates belonging to the most relevant Candida spp. (C. albicans, C. tropicalis, C. parapsilosis, C. sakè, and C. glabrata). Prior to testing, each isolate was cultured on a selective medium to ensure purity and optimal growth, as previously reported. The isolates were routinely identified by the morphological aspects of colonies and by biochemical identification. The used clinical isolates were collected from specimens of patients at the ‘Azienda Policlinico Umberto I’ (Sapienza University of Rome) and were obtained from hematology/oncology and surgery departments, which also included an intensive care unit. In particular, the samples were isolated from the upper and lower respiratory tract, blood, and indwelling venous catheters; the isolates were identified by conventional methodologies. Participating subjects gave their written informed consent for this study.

The next assay has as its system T2, C. albicans 5 strains.
T2 construct: 5 clinical isolates
Description: microbe, parasite or virus in culture. The note with it: Candida albicans, 24 h, read-out: Tested Fungi (MIC Values μg/mL) / C. albicans 5 strains. More on the design: species or system clinical Candida isolates; broth microdilution antifungal MIC, visual growth inhibition, CLSI. How it is done: as §1

In another assay the test system is T3, C. glabrata 3 strains.
T3 construct: 3 clinical isolates
As to the kind of experiment: microbe, parasite or virus in culture. More on the design: species or system clinical Candida isolates; broth microdilution antifungal MIC, visual growth inhibition, CLSI. The settings on record: Nakaseomyces glabratus, 24 h, read-out: Tested Fungi (MIC Values μg/mL) / C. glabrata 3 strains. How it is done:
as §1

The test system of assay [2] is T4, C. parapsilosis 2 strains.
T4 construct: 2 clinical isolates
Description: microbe, parasite or virus in culture. The note with it: Lodderomyces parapsilosis, 24 h, read-out: Tested Fungi (MIC Values μg/mL) / C. parapsilosis 2 strains. More on the design: species or system clinical Candida isolates; CLSI broth microdilution MIC, Sabouraud dextrose broth, 35 °C, visual complete growth inhibition. How it is done:
as §1

Assay [3] relates to T5, C. tropicalis 3 strains.
T5 construct: 3 clinical isolates
Description: microbe, parasite or virus in culture. The settings on record: Candida tropicalis, 24 h, read-out: Tested Fungi (MIC Values μg/mL) / C. tropicalis 3 strains. More on the design: species or system clinical Candida isolates; CLSI broth microdilution MIC, Sabouraud dextrose broth, 35 °C, visual complete growth inhibition. Here is the method:
as §1

A further assay has as its target T6, hCA I (Homo sapiens, UniProt P00915).
T6 construct: gene CA1; recombinant, obtained in-house as previously reported
As to the kind of experiment: stopped-flow CO2 hydrase assay. The class given is biochemical. An excerpt:
stopped-flow CO2 hydrase assay on hCA I

The nature of assay [4]: stopped-flow CO2 hydrase assay. The note with it: read-out: hCA I. The class given is biochemical, Homo sapiens.
The next assay addresses T7, CgNce103 (Nakaseomyces glabratus, UniProt Q6FTL6).
T7 construct: gene NCE103; recombinant, obtained in-house as previously reported; beta-class zinc enzyme
T7 sequence (Q6FTL6 1-219): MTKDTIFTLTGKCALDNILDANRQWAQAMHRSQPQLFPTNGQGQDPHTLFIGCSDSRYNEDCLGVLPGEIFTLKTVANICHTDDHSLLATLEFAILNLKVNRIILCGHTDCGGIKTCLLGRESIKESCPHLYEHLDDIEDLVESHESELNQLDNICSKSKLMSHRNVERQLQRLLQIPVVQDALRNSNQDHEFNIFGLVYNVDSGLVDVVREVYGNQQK
As to the kind of experiment: stopped-flow CO2 hydrase assay. The class given is biochemical.

A further assay deals with T8, hCA II (Homo sapiens, UniProt P00918).
T8 construct: gene CA2; recombinant, obtained in-house as previously reported
Description: stopped-flow CO2 hydrase assay. The class given is biochemical. An excerpt: stopped-flow CO2 hydrase assay on hCA II

Assay [5] has as its system T5, C. tropicalis 3 strains. Description: microbe, parasite or virus in culture. More on the design: species or system clinical Candida isolates; broth microdilution antifungal MIC, visual growth inhibition, CLSI. The note with it: Candida tropicalis, 24 h, read-out: Tested Fungi (MIC Values μg/mL) / C. tropicalis 3 strains. How it is done:
as §1

T6 sequence (P00915 2-261): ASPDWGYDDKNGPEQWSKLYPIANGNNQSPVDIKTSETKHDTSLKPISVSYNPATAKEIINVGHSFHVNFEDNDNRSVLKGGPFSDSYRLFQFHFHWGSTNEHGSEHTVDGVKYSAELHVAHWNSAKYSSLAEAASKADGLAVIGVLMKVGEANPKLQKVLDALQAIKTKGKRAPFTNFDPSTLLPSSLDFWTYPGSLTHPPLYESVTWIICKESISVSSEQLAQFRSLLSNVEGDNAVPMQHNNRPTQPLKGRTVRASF

As to `CC1S/C(=N\NC(=O)C(O)c2ccccc2)N(c2ccc([N+](=O)[O-])cc2)C1=O` (stereo not drawn) [4j], the MIC was 8 to 32 µg/mL (≈ 20 to 79.9 µM) in assay [1]; 8 to 32 µg/mL (≈ 20 to 79.9 µM) with C. albicans 5 strains; 8 to 32 µg/mL (≈ 20 to 79.9 µM) with C. glabrata 3 strains; 32 µg/mL (≈ 79.9 µM) in assay [2]; 16 µg/mL (≈ 40 µM) in the assay on C. tropicalis 3 strains [3].

As for `COc1ccc(N2C(=O)CS/C2=N\NC(=O)C(O)c2ccccc2)cc1` (stereo not drawn) [3m], the figures for the Ki (on hCA I; in assay [4]; at CgNce103) were more than 100 µM, more than 100 µM and 0.39 µM, respectively. Also, the MIC was 8 to 32 µg/mL (≈ 21.5 to 86.2 µM) in assay [1]; 8 to 32 µg/mL (≈ 21.5 to 86.2 µM) in the assay with C. albicans 5 strains; 8 to 32 µg/mL (≈ 21.5 to 86.2 µM) in the assay with C. glabrata 3 strains; 32 µg/mL (≈ 86.2 µM) in assay [2]; 32 µg/mL (≈ 86.2 µM) in the assay on C. tropicalis 3 strains [3].

Turning to `Cc1ccc(N2C(=O)C(C)S/C2=N\NC(=O)C(O)c2ccccc2)cc1` (stereo not drawn) [4h], the Ki is more than 100 µM on hCA I, more than 100 µM in assay [4] and 0.09 µM on CgNce103. In addition, the MIC in [1] is 8 to 32 µg/mL (≈ 21.7 to 86.6 µM); in the assay on C. albicans 5 strains, 8 to 32 µg/mL (≈ 21.7 to 86.6 µM); in the assay on C. glabrata 3 strains, 8 to 32 µg/mL (≈ 21.7 to 86.6 µM); in assay [2], 32 µg/mL (≈ 86.6 µM); with C. tropicalis 3 strains [3], 16 µg/mL (≈ 43.3 µM).

For `O=C(N/N=C1\SCC(=O)N1c1cccc(C(F)(F)F)c1)C(O)c1ccccc1` (stereo not drawn) [3o], the Ki at hCA II is 82.8 µM; on hCA I, more than 100 µM; on CgNce103, 0.12 µM. In addition, the MIC in assay [1] is 4 to 8 µg/mL (≈ 9.77 to 19.5 µM); in the assay with C. albicans 5 strains it was 16 to 32 µg/mL (≈ 39.1 to 78.2 µM); in the assay with C. glabrata 3 strains, 4 to 8 µg/mL (≈ 9.77 to 19.5 µM); in assay [2], 32 µg/mL (≈ 78.2 µM); with C. tropicalis 3 strains [3], 32 µg/mL (≈ 78.2 µM).

With `O=C(N/N=C1\SCC(=O)N1c1ccc([N+](=O)[O-])cc1)C(O)c1ccccc1` (stereo not drawn) [3n], the MIC in assay [1] was 8 to 32 µg/mL (≈ 20.7 to 82.8 µM); with C. albicans 5 strains, 8 to 32 µg/mL (≈ 20.7 to 82.8 µM); in the assay with C. glabrata 3 strains, 8 to 32 µg/mL (≈ 20.7 to 82.8 µM); in assay [2], 32 µg/mL (≈ 82.8 µM); in the assay on C. tropicalis 3 strains [3], 32 µg/mL (≈ 82.8 µM).

Turning to `O=C(N/N=C1\SCC(=O)N1c1ccccc1Cl)C(O)c1ccccc1` (stereo not drawn) [3d], the figures for the Ki (at hCA I; in assay [4]; on CgNce103) were more than 100 µM, more than 100 µM and 0.32 µM, respectively. For the same compound, the MIC was 8 to 32 µg/mL (≈ 21.3 to 85.1 µM) in assay [1]; 8 to 32 µg/mL (≈ 21.3 to 85.1 µM) in the assay on C. albicans 5 strains; 8 to 32 µg/mL (≈ 21.3 to 85.1 µM) with C. glabrata 3 strains; 32 µg/mL (≈ 85.1 µM) in assay [2]; 32 µg/mL (≈ 85.1 µM) in the assay on C. tropicalis 3 strains [3].

Take `Cc1cccc(N2C(=O)CS/C2=N\NC(=O)C(O)c2ccccc2)c1` (stereo not drawn) [3k]: the Ki on hCA II is 79.3 µM; on hCA I, more than 100 µM; on CgNce103, 0.41 µM. Further, the MIC is 8 to 32 µg/mL (≈ 22.5 to 90 µM) in assay [1]; 8 to 32 µg/mL (≈ 22.5 to 90 µM) in the assay on C. albicans 5 strains; 8 to 32 µg/mL (≈ 22.5 to 90 µM) in the assay on C. glabrata 3 strains; 16 µg/mL (≈ 45 µM) in assay [2]; 32 µg/mL (≈ 90 µM) in the assay on C. tropicalis 3 strains [3].

With `CC1S/C(=N\NC(=O)C(O)c2ccccc2)N(c2cccc(Cl)c2)C1=O` (stereo not drawn) [4c], the Ki on hCA I is more than 100 µM; in [4] it was more than 100 µM; on CgNce103 it was 0.12 µM. Moreover, the MIC in assay [1] is 4 to 8 µg/mL (≈ 10.3 to 20.5 µM); with C. albicans 5 strains, 16 to 32 µg/mL (≈ 41 to 82.1 µM); with C. glabrata 3 strains, 8 to 32 µg/mL (≈ 20.5 to 82.1 µM); in the assay on C. tropicalis 3 strains [5], 8 to 32 µg/mL (≈ 20.5 to 82.1 µM); in [2] it was 8 µg/mL (≈ 20.5 µM).

With `Cc1ccccc1N1C(=O)CS/C1=N\NC(=O)C(O)c1ccccc1` (stereo not drawn) [3j], the MIC in assay [1] was 8 to 32 µg/mL (≈ 22.5 to 90 µM); in the assay on C. albicans 5 strains it was 8 to 16 µg/mL (≈ 22.5 to 45 µM); with C. glabrata 3 strains, 8 to 32 µg/mL (≈ 22.5 to 90 µM); in assay [2], 16 µg/mL (≈ 45 µM); with C. tropicalis 3 strains [3], 32 µg/mL (≈ 90 µM).
